Measurements reported in patent US5952000A, “Fatty acid esters of lactic acid salts as permeation enhancers” (TheraTech, Inc., priority 1997, dated 1999).

How the values were obtained:
[1] = In vitro skin flux, estradiol from organic solvent based adhesive matrix (Example 3); format: in vitro ADME, human; details: organic solvent based acrylic PSA; vs free acid form
Procedure: Pressure sensitive adhesive matrix systems prepared according to the following steps. First, the solids content of the adhesive solution (water or organic solvent based) was determined by placing a known weight of solution in a weighed aluminum dish and evaporating the solvents overnight in a 70° C. convection oven. The solid adhesive content of the solution was calculated by dividing the adhesive solid weight after drying by the initial total solution weight. Next, a weighed quantity of adhesive solution was added to a glass bottle and the drug substance, permeation enhancer, and other excipients were weighed and added to the adhesive solution in a quantity necessary to achieve the desired dry matrix film composition. […]
The following sampling procedure was used for all dosage forms. At predetermined sampling time points, the entire contents of the receiver compartment were collected for drug quantitation and the receiver compartment was filled with fresh solution, taking care to eliminate any air bubbles at the skin/solution interface. The cumulative amount of drug permeated per unit area at any time t(Qt, μg/cm^2) was determined as follows: [formula] where CN is the concentration (μg/ml) of the drug in the receiver sample for the corresponding sample time, V is the volume of fluid in the receiver chamber (~6.3 cm^3), and A is the diffusional area of the cell (0.64 cm^2).

[2] = In vitro skin flux, clonidine from adhesive matrix systems (Example 7); format: in vitro ADME, human
Procedure: Permeation enhancement by a fatty acid lactylate salt was also evaluated with the basic antihypertensive drug clonidine in both free base and HCl acid addition salt forms. […] (Formulas 7-B, 7-D, 7-F and 7-H respectively).

[3] = In vitro skin flux, diclofenac from adhesive matrix systems (Example 8); format: in vitro ADME, human
Procedure: The effect of fatty acid lactylate salts on the permeation of a model acidic drug from some copolymer adhesive matrix systems was evaluated using diclofenac, a non-steroidal anti-inflammatory. The following matrix systems were prepared to test the effect of fatty acid lactylate salts on the permeation of this acidic compound from copolymer adhesives: (a) Diclofenac acid at 1.8% (w/w) in Durotak 87-2516 (National Starch and Chemical, New Jersey), a solvent based acrylic adhesive, at 92.8% (w/w) (Formula 8-A); (b) sodium diclofenac at 2.0% (w/w) in Nacor 72-9965 (National Starch and Chemical Company, New Jersey), an aqueous emulsion based acrylic adhesive, at 98% (w/w) (Formula 8-C); sodium diclofenac at 2.0% (w/w) and Robond PS-20 (Rohm and Haas, Philadelphia, Pa.) an aqueous emulsion based acrylic adhesive, at 93.6% (w/w) with polyvinylpyrrolidone (PVP, Kollidon 90, BASF, New Jersey) at 2.0% (w/w) as a thickening agent (Formula 8-E).

[4] = In vitro skin flux, testosterone from hydroalcoholic gel (Example 2)
Procedure: (§1) In vitro skin flux studies were conducted using human cadaver epidermal membrane in modified Franz non-jacketed diffusion cells. […] This method involves the exposure of the full-thickness skin to water at 60° C. for a time period of 60 seconds. After this period, the epidermal membrane was gently peeled off the dermis and stored for later use in aluminum foil at -5° C.
Permeation experiments with hydroalcoholic gels were performed using finite occluded doses. The occluded dose is an appropriate in vitro model for the application of a transdermal patch drug delivery system containing a liquid or gel reservoir.
Occluded dosing experiments were set-up according to the following procedure. […]
(§2) The following sampling procedure was used for all dosage forms. At predetermined sampling time points, the entire contents of the receiver compartment were collected for drug quantitation and the receiver compartment was filled with fresh solution, taking care to eliminate any air bubbles at the skin/solution interface. The cumulative amount of drug permeated per unit area at any time t(Qt, μg/cm^2) was determined as follows: [formula] where CN is the concentration (μg/ml) of the drug in the receiver sample for the corresponding sample time, V is the volume of fluid in the receiver chamber (~6.3 cm^3), and A is the diffusional area of the cell (0.64 cm^2). […]

[5] = In vitro skin flux, testosterone from saturated aqueous solution (Example 1)
Procedure: as §1
Permeation experiments with aqueous solutions were performed using pre-saturated drug solutions containing excess drug solid (infinite dose). Prior to skin permeation experiments, the epidermal membrane was allowed to hydrate over night as described above. […]
as §2

[6] = In vitro skin flux, buspirone HCl from aqueous emulsion based acrylic PSA (Example 4); format: in vitro ADME, human
Procedure: Permeation enhancement of the potassium salt form of lauroyl lactylic acid (R.I.T.A. Corp., Woodstock, Ill.) in an aqueous emulsion based acrylic pressure sensitive adhesive (PSA) was evaluated using buspirone HCl as a model drug.

[7] = In vitro skin flux, buspirone free base from organic solvent based acrylic adhesive (Example 5); format: in vitro ADME, human; details: organic solvent based acrylic PSA
Procedure: Permeation enhancement of the potassium salt form of lauroyl lactylic acid using buspirone free base as a model drug was evaluated in an organic solvent based acrylic pressure sensitive adhesive.

| Molecule | effectiveness as permeation enhancer (in words) [1] | increase of clonidine permeation over unenhanced counterpart ([2]; aqueous emulsion based matrix systems, Tables 7-1, 7-2, 7-3) | effectiveness as enhancer (in words) ([2]; clonidine HCl, aqueous emulsion based matrix systems) | effectiveness as enhancer (in words) ([2]; clonidine base, organic solvent based adhesive matrix, Table 7-4) | increase in permeation, acid form of diclofenac ([3]; […] sodium lauroyl lactylate, Table 8-1) | effectiveness as enhancer (in words) ([3]; all of the matrix systems tested) | permeation enhancement (in words) [4] | permeation enhancement (in words) [5] | effectiveness as permeation enhancer (in words) [6] | effectiveness as permeation enhancer (in words) [7] | enhancement by free acid form compared with Formulas 8-D and 8-F (in words) ([3]; aqueous emulsion based adhesives, "will show") | enhancement by free acid form compared with Formula 8-B (in words) ([3]; solvent based adhesive, "will show") |
| --- | --- | --- | --- | --- | --- | --- | --- | --- | --- | --- | --- | --- |
| CCCCCCCCCCCC(=O)OC(C)C(=O)OC(C)C(=O)[O-].[Na+] (centres unmarked) [sodium lauroyl lactylate] | less effective as a permeation enhancer than the free acid form | about two fold | consistently effective enhancer | not an effective enhancer | about 50% | consistently effective enhancer | significant permeation enhancement | significant permeation enhancement |  |  |  |  |
| potassium lauroyl lactylate |  |  |  |  |  |  |  |  | unexpectedly effective permeation enhancer | not an effective permeation enhancers |  |  |
| CCCCCCCCCCCC(=O)OC(C)C(=O)O (centres unmarked) [lauroyl lactylic acid, reference compound] |  |  |  |  |  |  | significant permeation enhancement | significant permeation enhancement |  |  | significant reduction in enhancement | somewhat comparable results |
